From article PMC8151400, “Evidence of the Involvement of a Plus-C Odorant-Binding Protein HparOBP14 in Host Plant Selection and Oviposition of the Scarab Beetle Holotrichia parallela” (Insects, 2021)
pIC50, pKd, pKi: −log10 of the molar value. Counter-ions that a name gives are not always drawn. Like-named read-outs stand apart in the source and are kept apart here.

Key:
[1] = target: recombinant HparOBP14 (Holotrichia parallela, UniProt A0A0G2YD86); assay: biochemical; type: binding; conditions: for binding ability with HparOBP14: 1-NPN displacement, Figure 5
Experimental: To determine the affinity of HparOBP14 to odorant volatiles, the fluorescent displacement binding assay was carried out. A total of 27 compounds was selected, including 7 compounds from host plant (elm) volatiles, 11 compounds from organic fertilizer volatiles, and 9 compounds common in both of them. The odorant compounds (purity ≥95%) were purchased from Sigma-Aldrich. The fluorescent probe N-phenyl-1-naphthylamine (1-NPN) was dissolved in methanol (chromatographic grade) to a final concentration of 1 mM and used as the stock solution. The stock solution of the purified protein was diluted with Tris-HCl (50 mmol/L, pH 7.4) to a final concentration of 2 μM and added into a colorimetric plate cuvette. The 1-NPN stock solution was then successively added to the protein solution to the final concentrations ranging from 2 μM to 20 μM. The fluorescence changes were recorded to get K1-NPN, the dissociation constant of the complex HparOBP14/1-NPN.
The binding ability of HparOBP14 to the odorant compounds was determined by titrating the mixture of the protein and the 1-NPN (final concentration 2 μM of both) with each odorant compound at final concentrations ranging from 2 μM to 40 μM. The competitive dissociation constant was calculated from the corresponding IC50 values using the following equation: Ki = [IC50]/(1+ [1-NPN]/K1-NPN), where [1-NPN] is the free concentration of 1-NPN; K1-NPN is the dissociation constant of the complex HparOBP14/1-NPN.
The fluorescence changes during the binding of either 1-NPN or odorant compounds to the HparOBP14 protein were measured and recorded with the excitation wavelength of 337 nm and within a wavelength range of 350~550 nm by a 970CRT fluorescence spectrophotometer (Yidian Analytical Instrument Company, Shanghai, China).

[2] = system: antennae of H. parallela female adults; assay: Electroantennogram (EAG) recording after dsRNA injection; type: in vivo, Holotrichia parallela; conditions: 20 μL of 1 μg/μL in paraffin oil; for change of EAG responsive amplitude in dsHparOBP14-injected insects compared to uninjected control: 48 h after dsHparOBP14 injection; for EAG response: female adults
Experimental: (§1) The dsRNAs of HparOBP14 and GFP (GenBank number: ACY56286) (for primers, see Table S1) were synthesized using a T7 Ribo MAX™ Express RNAi System (Promega, Madison, WI, USA) according to the manufacturer’s instructions. The GFP-dsRNA was used as the negative control. Nine-to-eleven-day-old female adult beetles were injected with 2 μg dsRNA into the adult head with a 5 μL injection needle (7000 series syringes, Hamilton, USA), then kept under the same condition as 2.1 described above. The antennae were dissected at 24 h, 48 h, 72 h, and 96 h after injection, and the samples were stored at −80 °C for further RT-qPCR analyses.
The EAG recording was conducted on the adult antennae with the EAG micromanipulator MP-15 and analyzed with EAG-Pro (Syntech, Kirchzarten, Germany). Briefly, two ends of the antennae were set on electrode holders with a conductive adhesive (Spectra 360 electrode gel). An ashless filter paper (Hangzhou Special Paper Co., Ltd., Hangzhou, China) was cut into strips (3 cm × 0.5 cm). A 20 μL compound solution (concentration 1 μg/μL in paraffin oil) was applied onto the paper strip which was then placed in a Pasteur tube (17 cm × […]) and applied to the antennae by purified air at a flow rate of 1 L/min. The paraffin oil (20 μL) was used as a control. The stimulus recording time was 0.5 s and the interval between two stimulations was more than 1 min.

[3] = system: female Holotrichia parallela adults; assay: Y-tube olfactometer behavioral bioassay; type: in vivo; conditions: for change of attraction after injection of dsHparOBP14: dsHparOBP14-injected females; for behavioral response of uninjected female beetles: uninjected females, vs paraffin oil
Experimental: as §1
The Y-tube olfactometer mainly consisted of a Y-shaped glass tube (main arm, 30 cm; sidearm, 20 cm; inner diameter, 2.5 cm; side arm angle, 60 degrees), an air sampler, a drying tower, a gas scrubber, and a flow meter. Two gas-washing cylinders were successively connected with the flow meter, drying tower, air pump, and Y-shaped glass tube through rubber pipes. The testing compound (concentration 1 μg/μL in paraffin oil) and paraffin oil (as control) were taken and dropped respectively into a rubber septum (Pherobio Technology Co., Ltd., Beijing, China) and placed respectively into the side arms of the Y-tube. The flow rate of the atmospheric air sampler was adjusted to 500 mL/min.
A female adult beetle was introduced into the main arm at the downwind end of the Y-olfactometer. Each beetle was given 5 min to respond to the treatment, and the first choice that the beetle made for each of the lateral arms was recorded. The response was regarded as valid only if the beetle crawled more than 3 cm into a lateral arm and stayed for more than 1 min.
For each compound, more than 90 beetles were tested individually until 90 responsive beetles were obtained. Each individual beetle was tested only once, and the Y-olfactometer was replaced after every 10 beetles were tested to eliminate the odor effect. The number of individual beetles that selected the compound-treated arm of the Y-olfactometer was statistically compared with the number of beetles that selected the solvent-treated arm using a Chi-square goodness of fit test.

[4] = HparOBP14 and 1-NPN 2 µM each, titrated with compound 2–40 μM
[5] = HparOBP14 and 1-NPN 2 µM each, titrated with compound 2–40 μM, read-out: IC50
[6] = calculated from IC50: Ki = [IC50]/(1+[1-NPN]/K1-NPN), read-out: Ki

recombinant HparOBP14, sequence (A0A0G2YD86 entry or part of it): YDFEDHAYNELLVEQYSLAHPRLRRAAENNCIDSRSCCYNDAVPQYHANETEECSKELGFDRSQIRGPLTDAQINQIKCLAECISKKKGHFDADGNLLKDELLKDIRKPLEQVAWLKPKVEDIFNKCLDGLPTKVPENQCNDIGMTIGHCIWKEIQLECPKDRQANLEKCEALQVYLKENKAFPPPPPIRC

SMILES	pIC50 [1]	pKi [1]	Int (%): relative fluorescence intensity of 1-NPN/HparOBP14 complex after the addition of testing compound [1, 4] [%]	pIC50 [1, 5]	pKi [1, 6]	further results
CCCC(=O)O [butyric acid]	< 4.40	< 4.47	99.07	–	–	–
CCCCCCCCC=O [1-nonanal]	–	–	69.22	< 4.40	< 4.47	–
CO [methanol]	–	–	65.66	4.49	4.56	change of EAG responsive amplitude in dsHparOBP14-injected insects compared to uninjected control [2]: decreased significantly; change of attraction after injection of dsHparOBP14 [3]: markedly reduced; behavioral response of uninjected female beetles [3]: attracted
CCCCCCCO [1-heptanol]	< 4.40	–	83.41	–	< 4.47	–
CCCCCCCC=O [octanal]	–	–	–	< 4.40	< 4.47	–
CCCCC(CC)CO (stereo not drawn) [2-ethylhexanol]	–	–	85.80	< 4.40	< 4.47	binding ability with HparOBP14 [1]: weaker, or no, binding ability
C=CCc1ccc(O)c(OC)c1 [eugenol]	< 4.40	< 4.47	86.03	–	–	–
CCCCCCCCCCCC=O [dodecyl aldehyde]	–	–	92.42	< 4.40	< 4.47	–
Cc1ccc(C(C)C)cc1 [p-cymene]	4.52	4.59	62.70	–	–	change of EAG responsive amplitude in dsHparOBP14-injected insects compared to uninjected control [2]: decreased significantly; change of attraction after injection of dsHparOBP14 [3]: no obvious change; behavioral response of uninjected female beetles [3]: attracted
CC/C=C\CCO [(Z)-3-hexen-1-ol]	< 4.40	< 4.47	96.53	–	–	–
CC/C=C\CCOC(C)=O [cis-3-hexenyl acetate]	–	–	81.43	< 4.40	< 4.47	binding ability with HparOBP14 [1]: weaker, or no, binding ability
CCCCCCO [1-hexanol]	< 4.40	–	72.19	–	< 4.47	–
Cc1ccc(O)cc1 [p-cresol]	< 4.40	< 4.47	91.23	–	–	–
C=C1CC/C=C(\C)CC[C@@H]2[C@@H]1CC2(C)C [β-caryophyllen]	–	–	–	< 4.40	< 4.47	–
CC1=CCC2C(C1)C2(C)C (stereo not drawn) [3-carene]	–	–	68.52	< 4.40	< 4.47	–
Cc1c[nH]c2ccccc12 [3-methylindole]	–	–	56.22	4.61	4.68	change of EAG responsive amplitude in dsHparOBP14-injected insects compared to uninjected control [2]: do not change significantly; EAG response [2]: clear responses; change of attraction after injection of dsHparOBP14 [3]: no obvious change; behavioral response of uninjected female beetles [3]: attracted
CCCCCCCCCC=O [decanal]	–	–	77.88	< 4.40	< 4.47	–
CC(C)=CCC/C(C)=C/CO [geraniol]	4.40	4.47	72.07	–	–	change of EAG responsive amplitude in dsHparOBP14-injected insects compared to uninjected control [2]: decreased significantly; change of attraction after injection of dsHparOBP14 [3]: markedly reduced; behavioral response of uninjected female beetles [3]: attracted
CC(=O)CCC=C(C)C [6-methyl-5-hepten-2-one]	4.49	4.55	61.66	–	–	change of EAG responsive amplitude in dsHparOBP14-injected insects compared to uninjected control [2]: do not change significantly; EAG response [2]: clear responses; change of attraction after injection of dsHparOBP14 [3]: significantly increased; behavioral response of uninjected female beetles [3]: attracted
CCCC(O)CC (stereo not drawn) [3-hexanol]	–	–	84.27	< 4.40	< 4.47	–
C=C1C2CCC(C2)C1(C)C (stereo not drawn) [camphene]	–	–	83.88	< 4.40	< 4.47	–
c1ccc(Nc2cccc3ccccc23)cc1 [1-NPN, N-phenyl-1-naphthylamine, reference compound]	–	–	–	–	–	pKd [1]: 5.24
CC/C=C\CCOC=O [cis-3-hexenyl formate]	–	–	81.25	< 4.40	< 4.47	binding ability with HparOBP14 [1]: weaker, or no, binding ability
C=CC(C)(O)CCC=C(C)C (stereo not drawn) [linalool]	< 4.40	< 4.47	89.20	–	–	binding ability with HparOBP14 [1]: weaker, or no, binding ability
CC1=CC[C@H](C(C)C)C=C1 (racemic) [α-phellandrene]	< 4.40	< 4.47	83.00	–	–	binding ability with HparOBP14 [1]: weaker, or no, binding ability
c1ccc2[nH]ccc2c1 [indole]	< 4.40	< 4.47	82.23	–	–	–
